Reference: patent publication US20250257058A1, “COMPOSITIONS AND METHODS FOR INHIBITING CARP-1 BINDING TO NEMO” (The United States Government as represented by the …, priority 2022, published 2025)
“Also recorded” adds a separate entry of the source. Where two headings read alike, the source gives them in different places.

Assays:
MDA-MB-468 cells = test: MTT cytotoxicity assay in MDA-MB-468 cells; format: cell-based; settings: for Cell viability inhibition in combination with cisplatin compared with SNI-1: MDA-MB-468, 5 μM compound + 20 μM cisplatin; for Cell viability inhibition (%) (Single agent) MDA-MB-468: MTT, SNI analogs 5 μM, doxorubicin 5 μM, cisplatin 20 μM; for Cell viability inhibition as single agent compared with SNI-1: MDA-MB-468, single agent; for Cytotoxicity in combination with doxorubicin compared with SNI-1: MDA-MB-468, 5 μM compound + 5 μM doxorubicin
Description: (§1) The cell lines were cultured in Dulbecco's Modified Eagle's Medium and Roswell Park Memorial Institute (RPMI) as per ATCC recommendation. Media was supplemented with 10% FBS, 2 mM L-glutamine, 100 U/ml penicillin, and 100 mg/ml streptomycin and incubated at 37° C. in a 5% CO2 air humidified atmosphere.
(§2) For the in vitro cytotoxicity studies, cells were seeded in 96-well plates with approximately 5000-8000 cells per well, depending upon the cell's exponential growth.
(§3) For cytotoxic response, cells were analyzed using the MTT reagent dissolved in PBS (1 mg/ml) at pH 7.4. […] Cells were then incubated again for 2-4 hours at 37° C., after which time the MTT reagent was added and the cells were incubated an additional 2 hours. Following this, the media was supplanted by DMSO, and the plates were put on a shaker for 15 min. The absorbance was measured at 570 nm using a high-performance multi-mode plate reader (Synergy 2, BioTek). The percentage of surviving cells was calculated by comparing the treated cells' absorbance and legitimate controls cells. The same procedure was followed for all the cell lines and later calculate the percentage of viable cells independently.

HCC-1937 cells [1] = settings: human, 24 h, 5 μM
Description: as §1, §2, §3
(§4) Each histogram's columns indicate the percent of live/viable cells relative to their DMSO-treated controls.

MDA-MB-231 cells [2] = test: MTT cytotoxicity assay in MDA-MB-231 cells; format: cell-based; settings: for cytotoxicity at 5 µM: Homo sapiens; for Inhibition of viabilities as single agent compared with SNI-1: 24 h or 48 h
Description: Here, SNI-1 analogs were synthesized by incorporating combinations of substitutions on Rings A and C (FIG. 8). The efficacy of these compounds was analyzed in two different cell lines: MDA-MB-468 and MDA-MB-231. […] The duration of treatment time was 24 h for […] and 24 h and 48 h for MDA-MB-231 cells. These cells are a more aggressive form of TNBC cells. It expresses both epidermal growth factor (EGF) and transforming growth factor-alpha (TGF alpha) receptors.

MDA-MB-231 cells [3] = settings: MDA-MB-231, 4T1 and resistant TNBC cells; 5 μM SNI-1 + 20 μM cisplatin; cited from earlier work
4T1 TNBC = settings: cited from earlier work
CARP-1 and NEMO binding = target: T1, CARP-1 and NEMO binding (Homo sapiens, UniProt Q8IX12); settings: biochemical mechanism; cited from earlier work
T1 sequence (Q8IX12 1-1150): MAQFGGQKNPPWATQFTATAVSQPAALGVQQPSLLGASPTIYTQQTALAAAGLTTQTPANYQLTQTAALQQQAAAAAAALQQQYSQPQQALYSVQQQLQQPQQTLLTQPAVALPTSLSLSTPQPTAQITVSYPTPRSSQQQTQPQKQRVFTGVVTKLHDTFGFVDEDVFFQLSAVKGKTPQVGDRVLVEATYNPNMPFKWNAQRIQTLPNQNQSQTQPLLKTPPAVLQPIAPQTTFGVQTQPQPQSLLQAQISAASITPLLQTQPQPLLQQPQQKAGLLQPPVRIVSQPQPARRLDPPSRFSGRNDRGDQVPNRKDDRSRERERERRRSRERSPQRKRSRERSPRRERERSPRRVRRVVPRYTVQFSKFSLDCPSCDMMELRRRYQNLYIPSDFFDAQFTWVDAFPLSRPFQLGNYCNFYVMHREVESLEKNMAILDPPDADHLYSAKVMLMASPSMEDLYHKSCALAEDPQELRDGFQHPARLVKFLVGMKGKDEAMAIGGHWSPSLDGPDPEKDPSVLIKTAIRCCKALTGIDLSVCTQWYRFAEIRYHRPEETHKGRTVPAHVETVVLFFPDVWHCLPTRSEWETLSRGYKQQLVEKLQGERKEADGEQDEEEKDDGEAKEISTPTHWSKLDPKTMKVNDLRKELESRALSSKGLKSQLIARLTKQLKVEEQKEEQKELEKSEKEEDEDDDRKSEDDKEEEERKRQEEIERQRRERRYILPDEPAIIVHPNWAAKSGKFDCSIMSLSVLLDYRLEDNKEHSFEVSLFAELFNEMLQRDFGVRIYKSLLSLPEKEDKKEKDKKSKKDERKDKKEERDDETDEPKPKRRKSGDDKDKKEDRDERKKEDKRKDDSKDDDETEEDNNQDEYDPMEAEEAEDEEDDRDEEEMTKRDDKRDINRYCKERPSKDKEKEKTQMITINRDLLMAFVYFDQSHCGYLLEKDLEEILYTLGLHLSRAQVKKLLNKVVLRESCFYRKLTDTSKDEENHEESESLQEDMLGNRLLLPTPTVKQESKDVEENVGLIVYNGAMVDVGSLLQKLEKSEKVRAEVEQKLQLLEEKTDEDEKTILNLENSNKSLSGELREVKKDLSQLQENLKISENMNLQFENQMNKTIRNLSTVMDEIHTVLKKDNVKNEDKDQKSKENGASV

HCC-1937 cells [4] = test: MTT cytotoxicity assay in HCC-1937 cells (BRCA-1 mutation); settings: 24 h
Description: as §1, §2, §3, §4

[5] = Homo sapiens, MDA-MB-468, 5 μM compound + 5 μM doxorubicin, 24 h, read-out: Cell viability inhibition (%) with Doxorubicin MDA-MB-468
[6] = MDA-MB-231, 5 μM compound + 5 μM doxorubicin, 24 h, read-out: Cell viability inhibition (%) with Doxorubicin MDA-MB-231
[7] = single agent, SNI analogs 5 μM, doxorubicin 5 μM

SMILES	cytotoxicity at 5 µM (MDA-MB-468 cells; [5])	Cell viability inhibition in combination with cisplatin compared with SNI-1 (MDA-MB-468 cells; 24 h)	Cell viability inhibition (%) (Single agent) MDA-MB-468 (MDA-MB-468 cells; single agent, 24 h)	Cell viability inhibition (%) Single-agent HCC-1937 (HCC-1937 cells [1])	cytotoxicity at 5 µM (MDA-MB-231 cells [2]; [6])	Cell viability inhibition (%) Single-agent MDA-MB-231 (MDA-MB-231 cells [2]; [7])	other results
Cc1ccc(-n2nnnc2SCC(=O)c2ccc(N3CCOCC3)cc2)cc1 [GL-269, 1-(4-morpholinophenyl)-2-((1-(p-tolyl)-1H-tetrazol-5-yl)thio)ethan-1-one]	53%	much better activity in combination with cisplatin; also recorded: viability inhibition equal to or better than parent SNI-1	37%	~10%			
CCOC(=O)c1ccc(-n2nnnc2SCC(=O)c2ccc(O)c(O)c2)cc1 [GL-251, Ethyl 4-(5-((2-(3,4-dihydroxyphenyl)-2-oxoethyl)thio)-1H-tetrazol-1-yl)benzoate]							Cell viability inhibition as single agent compared with SNI-1 (MDA-MB-468 cells; 5 μM, 24 h): greater cell viability inhibition as a single agent when compared to SNI-1
Cc1ccc(-n2nnnc2SCC(=O)c2ccc(O)c(O)c2)cc1 [SNI-1, 1-(3,4-dihydroxyphenyl)-2-((1-(p-tolyl)-1H-tetrazol-5-yl)thio)ethan-1-one]	~75%		10%	11%	~77%	~8%	Loss of viability in combination with cisplatin (previous studies) (MDA-MB-231 cells [3]): significant loss of viability; Response as a single agent in the syngeneic 4T1 TNBC model (4T1 TNBC): failed its response; Binding with CARP-1 and inhibition of its interaction with NEMO (CARP-1 and NEMO binding): binds with CARP-1 and inhibits its interaction with NEMO
NS(=O)(=O)c1ccc(-n2nnnc2SCC(=O)c2ccc(O)c(O)c2)cc1 [GL-252, 4-(5-((2-(3,4-dihydroxyphenyl)-2-oxoethyl)thio)-1H-tetrazol-1-yl)benzenesulfonamide]	62%	slightly higher viability inhibition compared with cisplatin and SNI-1 in combination or cisplatin alone; also recorded: viability inhibition equal to or better than parent SNI-1	18%	~10%			Cell viability inhibition as single agent compared with SNI-1 (MDA-MB-468 cells; 5 μM, 24 h): greater cell viability inhibition as a single agent when compared to SNI-1
O=C(CSc1nnnn1-c1ccc(Cl)cc1Cl)c1ccc(O)c(O)c1 [GL-341, 2-((1-(2,4-dichlorophenyl)-1H-tetrazol-5-yl)thio)-1-(3,4-dihydroxyphenyl)ethan-1-one]	~49%	greater inhibitory effect	~3%	~6%	~68%	~21%	Cytotoxicity in combination with doxorubicin compared with SNI-1 (MDA-MB-468 cells; 24 h): slightly higher cytotoxicity; Efficacy in combination with cisplatin compared with SNI-1 (MDA-MB-231 cells [2]; MDA-MB-231, 5 μM compound + 20 μM cisplatin, 48 h): better efficacy when used in combination with cisplatin compared to SNI-1 and cisplatin itself; Inhibition of viabilities as single agent compared with SNI-1 (MDA-MB-231 cells [2]; MDA-MB-231, single agent, 5 μM): greater inhibition of viabilities than SNI-1
COc1cccc2c1C(=O)c1c(O)c3c(c(O)c1C2=O)C[C@@](O)(C(=O)CO)C[C@@H]3O[C@H]1C[C@H](N)[C@H](O)[C@H](C)O1 [Doxorubicin, reference compound]							cytotoxicity at 5 µM (MDA-MB-468 cells; Homo sapiens, MDA-MB-468, 24 h, read-out: Cell viability inhibition (%) (Single agent) MDA-MB-468): ~39%; cytotoxicity at 5 µM (MDA-MB-231 cells [2]; MDA-MB-231, single agent, SNI analogs 5 μM, doxorubicin 5 μM, read-out: Cell viability inhibition (%) Single-agent MDA-MB-231): ~56%
O=C(CSc1nnnn1-c1ccc([N+](=O)[O-])cc1)c1ccc(O)c(O)c1 [GL-342, 1-(3,4-dihydroxyphenyl)-2-((1-(4-nitrophenyl)-1H-tetrazol-5-yl)thio)ethan-1-one]	~50%	greater inhibitory effect	~22.27%	~21%	~73%	~23%	Extra loss of cell viability versus parent SNI-1 at 5 µM (MDA-MB-468 cells; Homo sapiens, MDA-MB-468 (FIG. 9), single agent, 5 μM, 24 h, read-out: Greater loss of cell viability as compared to parent SNI-1): ~10%; Cytotoxicity in combination with doxorubicin compared with SNI-1 (MDA-MB-468 cells; 24 h): slightly higher cytotoxicity; Cell viability inhibition as single agent compared with SNI-1 (MDA-MB-468 cells; 5 μM, 24 h): more cell viability inhibition; Inhibition of viabilities as single agent compared with SNI-1 (MDA-MB-231 cells [2]; MDA-MB-231, single agent, 5 μM): more cell viability inhibition; also recorded: greater inhibition of viabilities than SNI-1; Activity in combination with cisplatin compared with SNI-1 (HCC-1937 cells [4]; HCC-1937, 5 μM compound + 20 μM cisplatin): more cell viability inhibition than SNI-1 in combination with cisplatin
COc1ccc(C(=O)CSc2nnnn2-c2ccc(C)cc2)cc1OC [GL-339, 1-(3,4-dimethoxyphenyl)-2-((1-(p-tolyl)-1H-tetrazol-5-yl)thio)ethan-1-one]		greater inhibition in combination with cisplatin					
O=C(CSc1nc(-c2ccccc2)cs1)c1ccc(O)c(O)c1 [GL-216]		viability inhibition equal to or better than parent SNI-1	10%				Cell viability inhibition (%) with Doxorubicin MDA-MB-468 (MDA-MB-468 cells; 5 μM compound + 5 μM doxorubicin, 24 h): ~80%; Cell viability inhibition (%) with Cisplatin HCC-1937 (HCC-1937 cells [4]; 5 μM compound + 20 μM cisplatin): ~46%; Cell viability inhibition (%) Single-agent HCC-1937 (HCC-1937 cells [4]; single agent, SNI analogs 5 μM, cisplatin 20 μM): ~5%
Cc1ccc(-n2nnnc2SCC(=O)c2ccc3c(c2)OCCO3)cc1 [GL-268, 1-(2,3-dihydrobenzo[b][1,4]dioxin-6-yl)-2-((1-(p-tolyl)-1H-tetrazol-5-yl)thio)ethan-1-one]		viability inhibition equal to or better than parent SNI-1					
NS(=O)(=O)c1ccc(-n2nnnc2SCC(=O)c2ccc(N3CCOCC3)cc2)cc1 [GL-343, 4-(5-((2-(4-morpholinophenyl)-2-oxoethyl)thio)-1H-tetrazol-1-yl)benzenesulfonamide]	~57%		~2%	~1%	~79%	~36%	cytotoxicity at 5 µM (MDA-MB-231 cells [2]; MDA-MB-231, single agent, 5 μM, read-out: Greater inhibition of cell viability when compared with SNI-1 as a single agent): ~30%; Cytotoxicity in combination with doxorubicin compared with SNI-1 (MDA-MB-231 cells [2]; MDA-MB-231, 5 μM compound + 5 μM doxorubicin, 24 h): much better cytotoxicity when compared with SNI-1; Inhibition of viabilities as single agent compared with SNI-1 (MDA-MB-231 cells [2]; MDA-MB-231, single agent, 5 μM): greater inhibition of viabilities than SNI-1
